Here are results for 20 molecules from patent US10544130B2, “Metallo-beta-lactamase inhibitors” (priority 2015, dated 2020).

This series has as its system Pseudomonas aeruginosa PAO1 MB9798 (efflux+, IMP-1). The note with it: ratio MITC95 PA 9798/MITC95 PA 9799; imipenem at 2 μg/mL. A digest of the protocol: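 Isogenic PAO1 pair (efflux+ MB9798, efflux− MB9799, both IMP-1) tested by microbroth MIC with fixed imipenem and/or ceftazidime, usually at CLSI breakpoint, plus fixed class A/C inhibitor against AmpC. MBL inhibitor titrated; concentration restoring susceptibility recorded and fold difference between strains taken as efflux extent.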
On to `Nc1nc2c(-c3ccc(S(=O)(=O)NC[C@@H]4CCNC4)c(S(N)(=O)=O)c3-c3nnn[nH]3)cccc2s1` [Example 75, 4-(2-amino-1,3-benzothiazol-4-yl)-N^1-[(3R)-pyrrolidin-3-ylmethyl]-3-(1H-tetrazol-5-yl)benzene-1,2-disulfonamide], for which the Efflux ratio stood at 1.00.

Regarding `Nc1nc2c(-c3ccc(S(=O)(=O)NCCC(N)C(F)F)c(S(N)(=O)=O)c3-c3nnn[nH]3)cccc2s1.O=CO` (centres unmarked) [Example 124, 4-(4-(2-aminobenzo[d]thiazol-4-yl)-2-sulfamoyl-3-(1H-tetrazol-5-yl)phenylsulfonamido)-1,1-difluorobutan-2-aminium formate], the Efflux ratio is listed as 4.00.

In the case of `NCC1CCCCN1S(=O)(=O)c1ccc(-c2cccc3sc(N)nc23)c(-c2nnn[nH]2)c1S(N)(=O)=O.O=C(O)C(F)(F)F` (centres unmarked) [Example 110, (1-((4-(2-aminobenzo[d]thiazol-4-yl)-2-sulfamoyl-3-(1H-tetrazol-5-yl)phenyl)sulfonyl)piperidin-2-yl)methanaminium 2,2,2-trifluoroacetate], the Efflux ratio was 1.00.

As to `NC[C@@H]1CCN(S(=O)(=O)c2ccc(-c3cccc4sc(N)nc34)c(-c3nnn[nH]3)c2S(N)(=O)=O)C1` [Example 70, 3-(2-amino-1,3-benzothiazol-4-yl)-6-{[(3S)-3-(aminomethyl)pyrrolidin-1-yl]sulfonyl}-2-(1H-tetrazol-5-yl)benzenesulfonamide], the Efflux ratio came out at 1.00.

For `Nc1nc2c(-c3ccc(S(=O)(=O)N4CC(N)C4)c(S(N)(=O)=O)c3-c3nn[nH]n3)cccc2s1` [Example 147, 6-((3-aminoazetidin-1-yl)sulfonyl)-3-(2-aminobenzo[d]thiazol-4-yl)-2-(2H-tetrazol-5-yl)benzenesulfonamide], the Efflux ratio turned out to be 1.00.

Regarding `NC(=O)c1ccc(-c2ccc(S(=O)(=O)N[C@@H]3CCNC3)c(S(N)(=O)=O)c2-c2nnn[nH]2)cc1` [Example 137, (R)-4′-(N-(pyrrolidin-3-yl)sulfamoyl)-3′-sulfamoyl-2′-(1H-tetrazol-5-yl)-[1,1′-biphenyl]-4-carboxamide], the Efflux ratio was 1.00.

Regarding `NC(=O)[C@H](N)CNS(=O)(=O)c1ccc(-c2cccc3[nH]c(N)nc23)c(-c2nn[nH]n2)c1S(N)(=O)=O` [Example 188, (2R)-2-amino-3-(4-(2-amino-1H-benzo[d]imidazol-4-yl)-2-sulfamoyl-3-(2H-tetrazol-5-yl)phenylsulfonamido)propanamide], the Efflux ratio turned out to be 0.50.

In the case of `NC[C@@H](O)CNS(=O)(=O)c1ccc(-c2cccc3[nH]cnc23)c(-c2nn[nH]n2)c1S(N)(=O)=O` [Example 301, (R)-4-(1H-benzo[d]imidazol-4-yl)-N1-(3-amino-2-hydroxypropyl)-3-(2H-tetrazol-5-yl)-benzene-1,2-disulfonamide], the Efflux ratio came to 1.00.

Consider `Nc1nc2c(-c3ccc(S(=O)(=O)N[C@H]4CN[C@@H](C(=O)O)C4)c(S(N)(=O)=O)c3-c3nnn[nH]3)cccc2s1` [Example 82, (4R)-4-({[4-(2-amino-1,3-benzothiazol-4-yl)-2-sulfamoyl-3-(1H-tetrazol-5-yl)phenyl]sulfonyl}amino)-D-proline], for which the Efflux ratio is given as 0.50.

Regarding `Nc1ccc(-c2ccc(S(=O)(=O)NC[C@@H]3CNCCN3)c(S(N)(=O)=O)c2-c2nn[nH]n2)cn1` [Example 312, (S)-4-(6-aminopyridin-3-yl)-N1-(piperazin-2-ylmethyl)-3-(2H-tetrazol-5-yl)benzene-1,2-disulfonamide], the Efflux ratio was found to be 1.00.

Consider `C[N+]1(C)CC[C@@H](NS(=O)(=O)c2ccc(-c3cccc4[nH]c(N)nc34)c(-c3nn[nH]n3)c2S(N)(=O)=O)C1.[Cl-]` [Example 233, (R)-3-((4-(2-amino-1H-benzo[d]imidazol-4-yl)-2-sulfamoyl-3-(2H-tetrazol-5-yl)phenyl)sulfonamido)-1,1-dimethylpyrrolidin-1-ium chloride], for which the Efflux ratio came out at 1.00.

With `Nc1nc2c(-c3ccc(S(=O)(=O)NCCC(N)CF)c(S(N)(=O)=O)c3-c3nnn[nH]3)cccc2s1.O=CO` (stereo not drawn) [Example 123, 4-(4-(2-aminobenzo[d]thiazol-4-yl)-2-sulfamoyl-3-(1H-tetrazol-5-yl)phenylsulfonamido)-l-fluorobutan-2-aminium formate], the Efflux ratio is on record as 1.00.

Take `Cc1ccc(-c2ccc(S(=O)(=O)N[C@@H]3CCNC3)c(S(N)(=O)=O)c2-c2nn[nH]n2)c2nc(N)[nH]c12` [Example 285, (R)-4-(2-amino-7-methyl-1H-benzo[d]imidazol-4-yl)-N1-(pyrrolidin-3-yl)-3-(2H-tetrazol-5-yl)benzene-1,2-disulfonamide]: the Efflux ratio stood at 1.00.

With `Nc1nc2c(-c3ccc(S(=O)(=O)N4CC[S+]([O-])CC4)c(S(N)(=O)=O)c3-c3nnn[nH]3)cccc2s1` [Example 44, 3-(2-amino-1,3-benzothiazol-4-yl)-6-[(1-oxidothiomorpholin-4-yl)sulfonyl]-2-(1H-tetrazol-5-yl)benzenesulfonamide], the Efflux ratio came out at 2.00.

On to `NCCCNS(=O)(=O)c1ccc(-c2cccc3[nH]cnc23)c(-c2nn[nH]n2)c1S(N)(=O)=O` [Example 198, N^1-(3-aminopropyl)-4-(1H-benzo[d]imidazol-4-yl)-3-(2H-tetrazol-5-yl)benzene-1,2-disulfonamide], for which the Efflux ratio amounted to 1.00.

As for `NC[C@H](N)CNS(=O)(=O)c1ccc(-c2cccc3ccc(N)nc23)c(-c2nn[nH]n2)c1S(N)(=O)=O` [Example 371, (S)-4-(2-aminoquinolin-8-yl)-N1-(2,3-diaminopropyl)-3-(2H-tetrazol-5-yl)benzene-1,2-disulfonamide], the Efflux ratio was found to be 1.00.

As for `Nc1nc2c(-c3ccc(S(=O)(=O)NCC4COCCN4)c(S(N)(=O)=O)c3-c3nnn[nH]3)cccc2s1.O=C(O)C(F)(F)F` (centres unmarked) [Example 96, 3-((4-(2-aminobenzo[d]thiazol-4-yl)-2-sulfamoyl-3-(1H-tetrazol-5-yl)phenylsulfonamido)methyl)morpholin-4-ium 2,2,2-trifluoroacetate], the Efflux ratio came out at 1.00.

As for `Nc1ccc(-c2ccc(S(=O)(=O)N[C@H]3CCNC3)c(S(N)(=O)=O)c2-c2nn[nH]n2)cn1` [Example 195, (S)-4-(6-aminopyridin-3-yl)-N^1-(pyrrolidin-3-yl)-3-(2H-tetrazol-5-yl)benzene-1,2-disulfonamide], the Efflux ratio is on record as 1.00.

`CC(CN1CCOCC1)NS(=O)(=O)c1ccc(-c2cccc3sc(N)nc23)c(-c2nnn[nH]2)c1S(N)(=O)=O` (centres unmarked) [Example 51, 4-(2-amino-1,3-benzothiazol-4-yl)-N1-(1-methyl-2-morpholin-4-ylethyl)-3-(1H-tetrazol-5-yl)benzene-1,2-disulfonamide]: the Efflux ratio amounted to 4.00.

On to `CN(CCc1ccncc1)S(=O)(=O)c1ccc(-c2cccc3sc(N)nc23)c(-c2nnn[nH]2)c1S(N)(=O)=O.O=C(O)C(F)(F)F` [Example 100, 4-(2-(4-(2-aminobenzo[d]thiazol-4-yl)-N-methyl-2-sulfamoyl-3-(1H-tetrazol-5-yl)phenylsulfonamido)ethyl)pyridin-1-ium 2,2,2-trifluoroacetate], for which the Efflux ratio was determined as 32.00.
